What was measured:
[1] = system: ovary of Asterias amurensis; assay: gonad-stimulating activity: spawning of matured eggs from ovary fragments in a two-fold dilution series; format: cell-based; details: Asterias amurensis ovary piece in seawater, 25° C., spawning after 1 hr
Protocol: (§1) Gonad-stimulating activity could be measured by the following methods:
(§2) Those individuals, whose eggs are highly sensitive to oocyte maturation-inducing hormone, are selected from matured invertebrate female individuals and are separated as test individuals.
(§3) Ovaries are excised from test individuals into seawater and are cut in small pieces. The assay plate for multiple test samples is filled with 200 μl seawater. Two μl of a test sample for gonad-stimulating activity is diluted to 200 folds by mixing with 398 μl seawater. The half portion (200 μl) is diluted to two fold by mixing with 200 μl seawater in the assay plate. The half portion (200 μl) is further diluted to two fold by mixing with 200 μl seawater in the assay plate. Repeating of the procedure results in preparation of two fold dilution series from 200-folds dilution to 102,400-folds dilution. A small piece of ovary is added to each dilution sample and is allowed to rest at 25° C. The gonad-stimulating activity is evaluated by spawning of matured eggs from a contracted small piece of ovary after 1 hr. The relative gonad-stimulating activity is assessed by the degree of dilution.
(§4) In the following Examples, gonad-stimulating activity are examined by the following way:
(§5) Two to three individuals bearing oocyte with high sensitivity of a gonadotropic hormone (1-methyladenine) are selected from several tens of female individuals of matured Asterina pectinifera (or Asterias amurensis) and are separated as test individuals.
(§6) The selection was performed in the following way:
(§7) The oocyte maturation-inducing hormone was diluted to 6 different concentrations, i.e. 10^−6 M, 3×10^−7 M, 10^−7 M, 3×10^−8 M, 10^−8 M, and 3×10^−9 M, in seawater, wherein small fragment of ovary was added to the different concentrations of maturation-inducing hormone and was allowed to stand for 60 min at room temperature. Maturation of oocyte was examined under microscope after 60 min to see whether the structure of nuclei in an oocyte was degraded to prepare for next fertilization. The concentration of the oocyte maturation-inducing hormone at maturation was checked and those individuals, which were matured at less than 10^−7 M, were used as test individuals.
as §3, with “(with tufted morphology) were removed” for “are excised”, “were” for “are”, “into about 5 mm fragments.” for “in small pieces.”, “hr (FIG. 1).” for “hr.”

[2] = system: ovary of Asterina pectinifera; assay: as above; format: cell-based; details: for EC50(nM) gonad-stimulating activity, Asterina pectinifera: Asterina pectinifera ovary piece in seawater, 25° C., spawning after 1 hr; for gonad-stimulating activity (in words): summary of Table 1, Asterina pectinifera
Protocol: as §1, §2, §3, §4, §5, §6, §7
as §3, with “(with tufted morphology) were removed” for “are excised”, “were” for “are”, “into about 5 mm fragments.” for “in small pieces.”, “hr (FIG. 1).” for “hr.”

Sequence | EC50(nM) gonad-stimulating activity, Asterias amurensis [1] | EC50(nM) gonad-stimulating activity, Asterina pectinifera [2] | gonad-stimulating activity (in words) [2]
SEYSGIASYCCLHGCTPSELSVVC [GSS-B] | No activity | No activity | did not show gonad-stimulating activity
EKYCDDDFHMAVFRTCAVS [GSS-A, synthesized subunit peptide, 19 amino acid residues, molecular weight 2236] | No activity | No activity | did not show gonad-stimulating activity

Reference: patent US20080096251A1, “Invertebrate-Derived Gonadotropic Hormone and its Synthesis” (priority 2004, published 2008)
